Test results: patent US6753010B2, “Soft gelatin capsule containing angelica oil” (Shandong Luye Phamaceutical Co., Ltd., priority 2000, dated 2004)

Experiment: Influence of temperature on ligustilide content in angelica essential oil (gas chromatography, internal standard diethyl phthalate)
Assay type: physicochemical
Conditions: for Content of ligustilide: in angelica essential oil, sealed vial
Description: Gas chromatograph (Shimadzu GC-14B); Diethyl phthalate (Shanghai First Reagents Factory, purity is 99.7% tested by gas chromatography with area normalization method); angelica essential oil (991007).
Test group: Five portions of angelica essential oil (30 μl each) are placed separately in five 7 ml-sealing vials numbered with 0, 1, 2, 3 and 4, weighed accurately and sealed. The vials are laid in an oven (100° C.) and the samples are taken out of the oven after 0, 1, 2, 3 and 4 hours respectively. Anabout 16 μl of diethyl phthalate as the internal standard is added. Then the samples are weighed accurately and diluted with ca. 1 ml of ethyl alcohol additionally. According to the method in the item of ? Purity Test ? under “Protocol and Remarks of the Quality standard for Angelica essential oil” the content of ligustilide is determined.
Control group: Five portions of angelica essential oil (30 μl each) are placed separately in five 7 ml-sealing vials numbered with 0′, 1′, 2′, 3′ and 4′, weighed accurately and sealed. The vials are laid aside under room temperature of 20° C. and about 16 μl of diethyl phthalate as internal standard is added after 0, 1, 2, 3 and 4 hours respectively. […] with ca. 1 ml of ethyl alcohol additionally. According to the method in the item of ? Purity Test ? under “Protocol and Remarks of the Quality standard for Angelica essential oil”, the content of ligustilide is determined.

With `CCC/C=C1\OC(=O)C2=C1CCC=C2` [ligustilide] the “Stability of ligustilide content (in words)” value (in angelica essential oil under room temperature (20° C.)) was “relatively stable”, the “Stability of ligustilide content (in words)” value (in angelica essential oil under temperature of 100° C.) was “decreases gradually” and the Content of ligustilide (higher temperature (100° C.), 0 hour) was 55.50%. It also gave a Content of ligustilide (higher temperature (100° C.), 1 hour) of 41.89%, a Content of ligustilide (higher temperature (100° C.), 2 hours) of 32.74% and a Content of ligustilide (higher temperature (100° C.), 3 hours) of 21.89%. The Content of ligustilide (higher temperature (100° C.), 4 hours) was 12.00%, the Content of ligustilide (room temperature (20° C.), 0 hour) was 55.5% and the Content of ligustilide (room temperature (20° C.), 1 hour) was 56.01%. For the same compound, the Content of ligustilide (room temperature (20° C.), 2 hours) was 56.66%, the Content of ligustilide (room temperature (20° C.), 3 hours) was 55.78% and the Content of ligustilide (room temperature (20° C.), 4 hours) was 55.39%.
